In patent publication US12558428B2, “Heterobifunctional compounds and their use in treating disease” (Halda Therapeutics OpCo, Inc., priority 2024, dated 2026):
Read-outs that look alike come from different tables or passages of the source.

Experiments:
Type in all cases: cell-based
[1] = tested on: T-Rex 293 cells having increased expression of estrogen receptor alpha protein; assay: Cellular growth inhibition assay, T-Rex 293 cells, (+) doxycycline; conditions: T-REx-293, 72 h, 72 hours
Procedure: (§1) Exemplary compounds were tested for the ability to inhibit the proliferation of the following types of cells: (i) a T-Rex 293 cell line having increased expression of estrogen receptor alpha protein from exposure to doxycycline and (ii) a T-Rex 293 cell line lacking increased expression of estrogen receptor alpha protein.
(§2) The following types of cells were prepared for this experiment: (i) a T-Rex 293 cell line having increased expression of estrogen receptor alpha protein from exposure to doxycycline and (ii) a T-Rex 293 cell line lacking increased expression of estrogen receptor alpha protein. The ability of the test compounds to inhibit proliferation of the foregoing cell types was evaluated according to the procedures set forth below.
(§3) The doxycycline-inducible estrogen receptor alpha protein expressing cell line was established using the following protocol: T-Rex 293 cells were purchased from Invitrogen (Cat #R71007) and transfected using Lipofectamine 2000 with the wild-type estrogen receptor alpha protein sequence cloned into the pcDNA4/TO vector. Transfected cells were selected using 400 μg/mL Zeocin (Invitrogen Cat #R25001). Following selection, single clones were raised and maintained in Dulbecco's Modified Eagle Medium (DMEM) supplemented with 10% w/w Tetracycline-free fetal bovine serum (FBS) and 250 μg/mL Zeocin. Clones were analyzed for expression of estrogen receptor alpha protein in the presence and absence of 3 ng/mL doxycycline (Sigma Cat #D9891), and a single doxycycline-inducible clone (hereinafter “SC”) was selected for use in downstream assays.
(§4) The SC cells were seeded on poly-D-lysine coated, black clear-bottom 384-well plates at 2500/well, in 25 μL Phenol Red Free Dulbecco's Modified Eagle Medium (DMEM) supplemented with 10% w/w charcoal-dextran treated fetal bovine serum (FBS) and 1% w/w pen-strep, with or without 3 ng/mL doxycycline. Pen-Strep is a commercially available mixture of penicillin G and streptomycin, which is used in mammalian cell culture media to prevent bacterial contamination. Phenol Red Free Dulbecco's Modified Eagle Medium (DMEM) supplemented with 10% w/w charcoal-dextran treated fetal bovine serum (FBS) and 1% w/w pen-strep, with or without 3 ng/mL doxycycline is herein referred to as Treatment Medium. Following seeding of cells in the plates, the plates were spun at 300×g for 30 seconds, then equilibrated to room temperature for 30 minutes, and then deposited in a humidified tissue culture incubator maintained at 37° C. with 5% CO2.
(§5) At 24 hours after seeding of the cells, dilutions of test compound were prepared in DMSO and dissolved in Treatment Medium, to achieve a final DMSO concentration of 0.5% w/w, thereby providing the Test Compound Solution. A 25 μL aliquot of the Test Compound Solution was added to cells in the well plates. An equal volume of a solution containing DMSO and Treatment Medium was used as a negative control. Following treatment of cells with Test Compound Solution or said equal volume of a solution containing DMSO and Treatment Medium, the plates were spun at 300×g for 30 seconds, and then left in an incubator for 72 hours.
(§6) At the end of the treatment duration, cell viability was quantified with CellTiter-Glo 2.0 reagent (Promega Cat #G9243). For this purpose, plates were equilibrated to room temperature for 30 minutes, and then 25 μL of CellTiter-Glo 2.0 reagent was added to cells in the plate wells. Plates were then agitated on a shaker for two minutes at 500 rpm and subsequently incubated at room temperature for 10 minutes. Following incubation, the plates were spun at 3000×g for 30 seconds, then sealed with an optical adhesive cover, and luminescence readings were measured with an EnVision Plate Reader (Perkin Elmer).
(§7) Data was normalized using zero luminescence for baseline. […]

[2] = tested on: T-Rex 293 cells lacking increased expression of estrogen receptor alpha protein; assay: Cellular growth inhibition assay, T-Rex 293 cells, (−) doxycycline; conditions: T-REx-293, 72 h, 72 hours
Procedure: as §1, §2, §3, §4, §5, §6, §7

[3] = tested on: MCF7 cells (ATCC #HTB-22); assay: Cellular growth inhibition assay, MCF7 cells purchased from ATCC; conditions: Homo sapiens, MCF7, 144 h, Table 8-A; MCF7 cells purchased from ATCC; six days; CellTiter-Glo; read-out: GI50
Procedure: Exemplary compounds were tested for the ability to inhibit the proliferation of MCF7 cells.
MCF7 cells (ATCC #HTB-22 or ECACC #86012803) were cultured in RPMI 1640 medium supplemented with 10% heat-inactivated fetal bovine serum, 1% pen-strep, and 0.2 U/ml insulin. Cells were seeded in 25 μL of RPMI 1640 medium supplemented with 10% heat-inactivated fetal bovine serum, 1% pen-strep, 0.2 U/ml insulin in poly-D-lysine treated, black clear-bottom 384-well plates at 225 cells/well for MCF7 cells purchased from ECACC or 1,500 cells/well for MCF7 cells purchased from ATCC. Following seeding, plates were spun at 300×g for 30 seconds and cultured at 37° C. with 5% CO2 in a humidified tissue culture incubator.
At 24 hours after seeding, compounds were titrated in 100% DMSO and diluted in RPMI 1640 medium supplemented with 10% heat-inactivate fetal bovine serum, 1% pen-strep, and 0.2 U/ml insulin. A 25 μL aliquot of the compound/media mixture was added to cells, bringing the total volume in each well to 50 μL. An equal volume of DMSO without compound was used as a negative control. After treatment, plates were spun at 300×g for 30 seconds, then cultured at 37° C. with 5% CO2 for six days in a humidified tissue culture incubator.
On Day 6 of treatment, cell viability was quantified with CellTiter-Glo 2.0 reagent (Promega). Plates were equilibrated to room temperature for 30 minutes, then 25 μL of CellTiter-Glo 2.0 reagent was added to cells, bringing the total volume in each well to 75 μL. After reagent was added, plates were mixed on a shaker for two minutes at 500 rpm and then incubated at room temperature for 10 minutes. Following incubation, plates were spun at 3,000×g for 30 seconds, sealed with an optical adhesive cover, and luminescence readings were measured with an EnVision Plate Reader.
Data was normalized to 0 luminescence for baseline. A four-parameter, non-linear regression curve fit was applied to dose-response data in GraphPad Prism data analysis software to determine the half maximal growth inhibitory concentration (GI50) for each compound.

[4] = T-Rex 293 cells with doxycycline-induced ERα expression, CellTiter-Glo 2.0, read-out: (+) Dox TRex ERa (GI50)
[5] = T-Rex 293 cells without doxycycline, CellTiter-Glo 2.0, read-out: (−) Dox TRex ERa (GI50)
[6] = Table 7-A, T-Rex 293 cells with doxycycline (increased ERα expression), CellTiter-Glo, read-out: (+) Dox GI50
[7] = Table 7-A, T-Rex 293 cells without doxycycline (lacking increased ERα expression), CellTiter-Glo, read-out: (−) Dox GI50

| SMILES | GI50 [1, 4] [nM] | GI50 [2, 5] [nM] | GI50 [3] [nM] | GI50 [1, 6] [nM] | GI50 [2, 7] [nM] |
| --- | --- | --- | --- | --- | --- |
| Cc1sc2c(c1C)C(c1ccc(OC3CC4(CCN(c5ccc(C(=O)c6c(-c7ccc(O)cc7)sc7cc(O)ccc67)cc5)CC4)C3)cc1)=N[C@@H](Cc1ncco1)c1nnc(C)n1-2 (single isomer, unassigned) [I-26, (6-hydroxy-2-(4-hydroxyphenyl)benzo[b]thiophen-3-yl)(4-(2-(4-(2,3,9-trimethyl-6-(oxazol-2-ylmethyl)-6H-thieno[3,2-f][1,2,4]triazolo[4,3-a][1,4]diazepin-4-yl)phenoxy)-7-azaspiro[3.5]nonan-7-yl)phenyl)methanone] | < 50 | 50 to 500 | < 50 |  |  |
| Cc1sc2c(c1C)C(c1ccc(N3CCN(CC4CCN(c5ccc([C@H]6c7ccc(O)cc7CC[C@H]6c6ccccc6)cc5)CC4)CC3)cc1)=N[C@@H](C)c1nnc(C)n1-2 (single isomer, unassigned) [I-37a] |  |  | 50 to 500 | 50 to 500 | 500 to 2500 |
| Cc1sc2c(c1C)C(c1ccc(N3CCN(CC4CCN(c5ccc([C@@H]6c7ccc(O)cc7CC[C@@H]6c6ccccc6)cc5)CC4)CC3)cc1)=N[C@@H](C)c1nnc(C)n1-2 (single isomer, unassigned) [I-37b] |  |  | 500 to 2500 | 500 to 2500 | 500 to 2500 |
| CC1=C(c2c(F)cc(OCCOCCOc3ccc(C4=N[C@@H](C)c5nnc(C)n5-c5sc(C)c(C)c54)cc3)cc2F)C(c2ccccc2)Oc2ccc(O)cc21 (single isomer, unassigned) [I-39] | 50 to 500 | 500 to 2500 | 50 to 500 |  |  |
| Cc1sc2c(c1C)C(c1ccc(N3CCC(O)(CN4CCC(c5cc(F)c([C@H]6c7ccc(O)cc7CC[C@H]6c6ccc(F)cc6)c(F)c5)CC4)CC3)cc1)=N[C@@H](C)c1nnc(C)n1-2 (single isomer, unassigned) [III-244] |  |  | 50 to 500 | > 2500 | > 2500 |
| Cc1sc2c(c1C)C(c1ccc(N3CCC(O)(CN4CCC(c5cc(F)c([C@@H]6c7ccc(O)cc7CC[C@@H]6c6ccc(F)cc6)c(F)c5)CC4)CC3)cc1)=N[C@@H](C)c1nnc(C)n1-2 (single isomer, unassigned) [III-245] |  |  | < 50 | < 50 | 500 to 2500 |
| COc1cc(N2CCN(CC3(O)CCN(c4ccc(C5=N[C@@H](C)c6nnc(C)n6-c6sc(C)c(C)c65)cc4)CC3)CC2)ccc1[C@H]1c2ccc(O)cc2CC[C@H]1c1ccc(F)cc1 (single isomer, unassigned) [III-275] |  |  | 50 to 500 | 50 to 500 | 50 to 500 |
| COc1cc(N2CCN(CC3(O)CCN(c4ccc(C5=N[C@@H](C)c6nnc(C)n6-c6sc(C)c(C)c65)cc4)CC3)CC2)ccc1[C@@H]1c2ccc(O)cc2CC[C@@H]1c1ccc(F)cc1 (single isomer, unassigned) [III-276] |  |  | < 50 | < 50 | 500 to 2500 |
| COc1cc(N2CCN(CC3(O)CCN(c4ccc(C5=N[C@@H](C)c6nnc(C)n6-c6sc(C)c(C)c65)cc4)CC3)CC2)ccc1[C@@H]1c2ccc(O)cc2CC[C@@H]1c1ccccc1F (single isomer, unassigned) [III-307] |  |  | < 50 | < 50 | 500 to 2500 |
| COc1cc(N2CCN(CC3(O)CCN(c4ccc(C5=N[C@@H](C)c6nnc(C)n6-c6sc(C)c(C)c65)cc4)CC3)CC2)ccc1[C@H]1c2ccc(O)cc2CC[C@H]1c1ccccc1F (single isomer, unassigned) [III-308] |  |  | 50 to 500 | 50 to 500 | 50 to 500 |
| COc1cc(N2CCN(CC3(O)CCN(c4ccc(C5=N[C@@H](C)c6nnc(C)n6-c6sc(C)c(C)c65)cc4)CC3)CC2)c(F)cc1[C@@H]1c2ccc(O)cc2CC[C@@H]1c1ccccc1 (single isomer, unassigned) [III-311] |  |  | < 50 | < 50 | 500 to 2500 |
| COc1cc(N2CCN(CC3(O)CCN(c4ccc(C5=N[C@@H](C)c6nnc(C)n6-c6sc(C)c(C)c65)cc4)CC3)CC2)c(F)cc1[C@H]1c2ccc(O)cc2CC[C@H]1c1ccccc1 (single isomer, unassigned) [III-312] |  |  | 50 to 500 | 50 to 500 | 50 to 500 |
| COc1cc(N2CCN(CC3(O)CCN(c4ccc(C5=N[C@@H](C)c6nnc(C)n6-c6sc(C)c(C)c65)c(F)c4)CC3)CC2)ccc1[C@H]1c2ccc(O)cc2CC[C@H]1c1cccc(F)c1 (single isomer, unassigned) [III-343] |  |  | < 50 | 50 to 500 | 50 to 500 |
| COc1cc(N2CCN(CC3(O)CCN(c4ccc(C5=N[C@@H](C)c6nnc(C)n6-c6sc(C)c(C)c65)c(F)c4)CC3)CC2)ccc1[C@@H]1c2ccc(O)cc2CC[C@@H]1c1cccc(F)c1 (single isomer, unassigned) [III-344] |  |  | < 50 | < 50 | 500 to 2500 |
| CCN(CCCCNC(=O)C[C@@H]1N=C(c2ccc(Cl)cc2)c2c(sc(C)c2C)-n2c(C)nnc21)CCOc1ccc(C(=O)c2c(-c3ccc(O)cc3)sc3cc(O)ccc23)cc1 [I-1, (S)-2-(4-(4-chlorophenyl)-2,3,9-trimethyl-6H-thieno[3,2-f][1,2,4]triazolo[4,3-a][1,4]diazepin-6-yl)-N-(4-(ethyl(2-(4-(6-hydroxy-2-(4-hydroxyphenyl)benzo[b]thiophene-3-carbonyl)phenoxy)ethyl)amino)butyl) acetamide] | 50 to 500 | 50 to 500 | 50 to 500 |  |  |
| CCN(CCOCCOCCOCCOCCOCCOCCCCCCCCc1cc(Cl)cc(NC(=O)NCc2ccc3c(c2)CN(C2CCC(=O)NC2=O)C3=O)c1)CCOc1ccc(C(=O)c2c(-c3ccc(O)cc3)sc3cc(O)ccc23)cc1 (centres unmarked) [II-1] |  |  | < 50 |  |  |
| CCN(CCCCCCCCc1cc(Cl)cc(NC(=O)NCc2ccc3c(c2)CN(C2CCC(=O)NC2=O)C3=O)c1)CCOc1ccc(C(=O)c2c(-c3ccc(O)cc3)sc3cc(O)ccc23)cc1 (centres unmarked) [II-3] |  |  | < 50 |  |  |
